Experiments:
Assay type in all cases: in vivo
[1] = tested on: ducksalad (Heteranthera limosa); assay: Test B flooded paddy test; details: 250 g ai/ha, Flood; visual rating on scale of 0 to 100 where 0 is no effect and 100 is complete control; 13 to 15 d after treatment
Outline: (§1)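 Plants at the 2-leaf stage were flooded to 3 cm above soil, and test compounds were applied directly into the paddy water, which was held at that depth throughout. After 13 to 15 d in a greenhouse, injury was rated visually against untreated controls on a 0–100 scale (0 no effect, 100 complete control).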

rice (Oryza sativa) = assay: Test B flooded paddy test; details: 250 g ai/ha, Flood; visual rating on scale of 0 to 100 where 0 is no effect and 100 is complete control; 13 to 15 d after treatment
Outline: as §1

[2] = tested on: sedge, umbrella (small-flower umbrella sedge, Cyperus difformis); assay: Test B flooded paddy test; details: 250 g ai/ha, Flood; visual rating on scale of 0 to 100 where 0 is no effect and 100 is complete control; 13 to 15 d after treatment
Outline: as §1

[3] = tested on: barnyardgrass (Echinochloa crus-galli); assay: Test B flooded paddy test; details: 250 g ai/ha, Flood; visual rating on scale of 0 to 100 where 0 is no effect and 100 is complete control; 13 to 15 d after treatment
Outline: as §1

[4] = tested on: oat, wild (wild oat, Avena fatua); assay: Test C greenhouse herbicide test, postemergence
Outline: (§2)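 Greenhouse postemergence spray on plants 2–18 cm tall; response judged visually after 13–15 d relative to untreated controls using a 0 (none) to 100 (full control) scale.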

[5] = tested on: chickweed (common chickweed, Stellaria media); assay: Test C greenhouse herbicide test, postemergence
Outline: as §2

kochia (Kochia scoparia) = assay: Test C greenhouse herbicide test, postemergence
Outline: as §2

[6] = tested on: morningglory (Ipomoea coccinea); assay: Test C greenhouse herbicide test, pre- and postemergence
Outline: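 Each species was treated both before emergence, in a loam–sand soil mix, and after emergence, as 1- to 4-leaf seedlings in peat-based potting medium. Plants stayed in the greenhouse 13 to 15 d, then were scored from 0 (no effect) to 100 (complete control) relative to controls.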

[7] = tested on: galium (catchweed bedstraw, Galium aparine); assay: Test A greenhouse herbicide test, postemergence
Outline: (§3)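 Plants grown in loam soil/sand blend pots were treated postemergence at 2 to 10 cm height, one- to two-leaf stage, with formulated test chemicals. After approximately 10 d in a greenhouse, injury was rated visually against untreated controls on a 0 to 100 scale (0 no effect, 100 complete control).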

[8] = tested on: blackgrass (Alopecurus myosuroides); assay: Test A greenhouse herbicide test, postemergence; details: for Blackgrass plant response rating: 0 to 100 scale, 0 is no effect, 100 is complete control
Outline: as §3

[9] = Postemergence, 125 g ai/ha, scale 0 to 100, 0 is no effect, 100 is complete control
[10] = Postemergence, 250 g ai/ha, scale 0 to 100, 0 no effect, 100 complete control, 13 to 15 d
[11] = postemergence, 62 g ai/ha, scale 0 to 100, 0 no effect, 100 complete control
[12] = Postemergence, 31 g ai/ha, 0 to 100 scale (0 no effect, 100 complete control)
[13] = Preemergence, 31 g ai/ha, scale 0 to 100, 0 is no effect, 100 is complete control
[14] = Preemergence, 62 g ai/ha, scale 0 to 100, 0 is no effect, 100 is complete control
[15] = Preemergence, 125 g ai/ha, scale 0 to 100, 0 is no effect, 100 is complete control
[16] = Preemergence, 250 g ai/ha, scale 0 to 100, 0 no effect, 100 complete control
[17] = 125 g ai/ha, 0 to 100 scale where 0 is no effect and 100 is complete control
[18] = 500 g ai/ha, visual rating after approx. 10 d, 0 to 100 scale (0 no effect, 100 complete control)
[19] = Postemergence, 31 g ai/ha, scale 0 to 100 (0 no effect, 100 complete control)
[20] = Postemergence, 62 g ai/ha, 0 to 100 scale (0 no effect, 100 complete control)
[21] = postemergence, 125 g ai/ha, scale 0 to 100, 0 no effect, 100 complete control

Row | SMILES | Plant response rating, Ducksalad [1] | Plant response rating, Rice (rice (Oryza sativa)) | Plant response rating, Sedge, Umbrella [2] | Plant response rating, Barnyardgrass [3] | Plant response rating, Oat, Wild [4, 9] | Plant response rating, Oat, Wild [4, 10] | Plant response rating, Chickweed [5, 9] | Plant response rating, Chickweed [5, 10] | Chickweed plant response rating [5, 11] | Plant response rating, Kochia (kochia (Kochia scoparia); [9]) | Plant response rating, Kochia (kochia (Kochia scoparia); [10]) | Plant response rating, Morningglory [6, 9] | Plant response rating, Morningglory [6, 10] | Plant response rating, Morningglory [6, 13] | Plant response rating, Morningglory [6, 14] | Plant response rating, Morningglory [6, 15] | Morningglory plant response rating [6, 16] | Plant response rating, Galium [7, 17] | Plant response rating, Blackgrass [8, 17] | Plant response rating, Galium [7, 18] | further results
1 | Cc1sc2ccccc2c1-c1c(O)c(Cl)nn(C)c1=O [Compound 89] | 65 | 0 | 40 | 0 | 30 | 40 | 100 | 100 | 95 | 90 | 100 | 98 | 98 | 80 | 85 | 85 | 90 | 90 | 30 |  | Oat, Wild plant response rating [4, 11]: 10; Chickweed plant response rating [5, 12]: 90; Kochia plant response rating (kochia (Kochia scoparia); [11]): 90; Morningglory plant response rating [6, 11]: 95; Galium plant response rating ([7]; 500 g ai/ha, 0 to 100 scale, 0 is no effect, 100 is complete control): 90; Blackgrass plant response rating ([8]; 500 g ai/ha): 60
2 | CC(=O)Oc1c(C)nn(C)c(=O)c1-c1c(C)cc(C)c2ccccc12 [Compound 99] | 0 | 0 | 0 | 0 | 90 | 95 | 90 | 90 | 90 | 90 | 95 | 100 | 100 | 80 | 85 | 90 | 95 | 100 | 60 | 100 | Oat, Wild plant response rating [4, 11]: 70; Chickweed plant response rating [5, 12]: 90; Kochia plant response rating (kochia (Kochia scoparia); [11]): 85; Morningglory plant response rating [6, 11]: 95; Blackgrass plant response rating ([8]; 500 g ai/ha): 80
3 | Cc1ccc2ccccc2c1-c1c(O)c(C(F)(F)F)nn(C)c1=O [Compound 102] | 0 | 0 | 50 | 0 | 10 | 25 | 95 | 98 | 95 | 20 | 50 | 100 | 100 | 45 | 75 | 85 | 98 | 100 | 20 | 100 | Plant response rating, Oat, Wild [4, 19]: 5; Plant response rating, Chickweed [5, 19]: 95; Plant response rating, Kochia (kochia (Kochia scoparia); [19]): 0; Plant response rating, Morningglory [6, 19]: 100; Blackgrass plant response rating ([8]; 500 g ai/ha): 70
4 | CCC(=O)Oc1c(C)nn(C)c(=O)c1-c1ccc(F)c2ccccc12 [Compound 113] | 0 | 0 | 0 | 0 | 90 | 90 | 98 | 100 | 90 | 95 | 100 | 100 | 100 | 85 | 95 | 98 | 100 | 100 | 90 | 100 | Plant response rating, Oat, Wild [4, 19]: 90; Plant response rating, Chickweed [5, 19]: 90; Plant response rating, Kochia (kochia (Kochia scoparia); [19]): 95; Plant response rating, Morningglory [6, 19]: 98; Plant response rating, Blackgrass [8, 18]: 90
5 | Cc1nn(C)c(=O)c(-c2c(C)sc3ccc(C(F)(F)F)cc23)c1O [Compound 121] | 0 | 0 | 0 | 0 | 80 | 90 | 90 | 98 | 90 | 95 | 95 | 100 | 98 | 25 | 55 | 85 | 90 | 70 | 20 | 90 | Plant response rating, Oat, Wild [4, 19]: 65; Plant response rating, Chickweed [5, 19]: 90; Plant response rating, Kochia (kochia (Kochia scoparia); [19]): 90; Plant response rating, Morningglory [6, 19]: 98; Plant response rating, Blackgrass [8, 18]: 50
6 | Cc1nn(C)c(=O)c(-c2cccc3ccc(Br)cc23)c1O [Compound 126] | 30 | 0 | 0 | 0 | 90 | 85 | 95 | 100 |  | 95 | 95 | 98 | 98 |  |  |  |  | 100 | 60 | 100 | Plant response rating, Oat, Wild [4, 19]: 60; Oat, Wild plant response rating [4, 20]: 80; Plant response rating, Chickweed [5, 19]: 90; Chickweed plant response rating [5, 20]: 90; Plant response rating, Kochia (kochia (Kochia scoparia); [19]): 90; Kochia plant response rating (kochia (Kochia scoparia); [20]): 90; Plant response rating, Morningglory [6, 19]: 95; Morningglory plant response rating [6, 20]: 95; Plant response rating, Blackgrass [8, 18]: 70
7 | COC(=O)Oc1c(C)nn(C)c(=O)c1-c1ccc(F)c2ccccc12 [Compound 130] | 0 | 0 | 0 | 0 |  | 95 |  | 100 |  |  | 100 |  | 100 |  |  |  |  | 100 | 60 | 100 | Plant response rating, Oat, Wild [4, 19]: 60; Oat, Wild plant response rating [4, 20]: 80; Oat, Wild plant response rating [4, 21]: 85; Plant response rating, Chickweed [5, 19]: 90; Chickweed plant response rating [5, 20]: 95; Chickweed plant response rating [5, 21]: 98; Plant response rating, Kochia (kochia (Kochia scoparia); [19]): 95; Kochia plant response rating (kochia (Kochia scoparia); [20]): 95; Kochia plant response rating (kochia (Kochia scoparia); [21]): 100; Plant response rating, Morningglory [6, 19]: 75; Morningglory plant response rating [6, 20]: 80; Morningglory plant response rating [6, 21]: 85; Plant response rating, Blackgrass [8, 18]: 70

From patent US10597388B2, “Pyridazinone herbicides” (FMC CORPORATION, priority 2014, dated 2020)
